The data set can be described thus: Fluorescence spectrum / intensity of dye solutions, dye complexes and microsphere dispersions (multi-function microplate reader, λex=730 nm). The following applies: aqueous solution. It is filed as physicochemical. The procedure: 0.5 mg of indocyanine green (Dianogreen Injection) (ICG, Jeil Pharmaceutical Co., Ltd.) as a near-infrared fluorescent dye was dissolved in 1 mL of distilled water, and then diluted with distilled water to prepare an indocyanine green solution at a concentration of 30 μM. For the indocyanine green/human serum albumin (HSA, SK Plasma) complex for comparison of fluorescence signals with the indocyanine green solution, 0.5 mg of indocyanine green powder was dissolved in a mixed solution of 0.214 mL of human serum albumin solution (20% concentration) and 0.786 mL of distilled water, and then diluted with distilled water to prepare an indocyanine green/human serum albumin complex (ICG-HSA) at a concentration of 30 μM. To compare fluorescence spectra, 200 μL of each prepared solution was aliquoted and placed in a 96-well plate, and the fluorescence spectrum (λex=730 nm) was measured using a multi-function microplate reader (SPARK, Tecan Trading AG, Zurich, Switzerland).
(§1) To compare fluorescence signals of the prepared the microspheres and the indocyanine green/human serum albumin complex, the same concentration of indocyanxhine green complex solution and dispersion of microparticles were prepared. […] Using the information on the content of indocyanine green in PLGA microspheres evaluated by the quantification, a dispersion was prepared by adding indocyanine green to 0.3 mL of distilled water so that the concentration was 30 μM. To compare fluorescence spectra, 200 μL of each of the prepared solution and dispersion was aliquoted and placed in a 96-well plate, and the fluorescence spectrum (λex=730 nm) was measured using a multi-function microplate reader (SPARK, Tecan Trading AG, Zurich, Switzerland).
as §1, with “To compare the fluorescence signals” for “To compare fluorescence signals”, “the prepared microspheres and” for “the prepared the microspheres and”, “multi-function microplate reader. Fluorescence images were analyzed using fluorescence imaging equipment (IVIS Lumina XR, Xenogen Corporation-Caliper, CA, USA) after putting 300μl of the same solution into a microtube (λex=780/20 nm, λem=845/40 nm). […]” for “multi-function microplate reader (SPARK, Tecan Trading AG, Zurich, Switzerland).”

In turn, `C[N+]1=C(C=CC2=CC(=CC=C3N(CCCCCC(=O)O)c4ccc(S(=O)(=O)[O-])cc4C3(C)C)CCC2)C(C)(C)c2cc(S(=O)(=O)[O-])ccc21.[K+]` [Cy7, sulfo-cyanine7 carboxylic acid] yielded an emission peak of 780 nm. As for `C[N+]1=C(C=CC2=CC(=CC=C3N(CCCCCC(=O)[O-])c4ccc5c(S(=O)(=O)[O-])cc(S(=O)(=O)[O-])cc5c4C3(C)C)CCC2)C(C)(C)c2c1ccc1c(S(=O)(=O)O)cc(S(=O)(=O)[O-])cc21.[K+].[K+].[K+]` [Cy7.5, sulfo-cyanine7.5 carboxylic acid], the emission peak worked out at 810 nm. Turning to `CC1(C)C(/C=C/C2=C(Oc3ccc(S(=O)(=O)O)cc3)C(=C/C=C3/N(CCCCS(=O)(=O)O)c4ccc(S(=O)(=O)[O-])cc4C3(C)C)/CCC2)=[N+](CCCCCC(=O)O)c2ccc(S(=O)(=O)O)cc21` [IRDye 800CW, IRDye® 800CW carboxylate], the emission peak was determined as 806 nm.

Flamma774 carboxylic acid came in with an emission peak of 812 nm.

For the origin of these results see patent US20240390526A1, “NEAR-INFRARED FLUORESCENT DYE-LOADED POLYMER MICROSPHERES FOR LABELLING LESIONS, AND FORMULATION THEREOF” (National Cancer Center, priority 2022, published 2024).
